Results from patent US11834698B2, “Process for determining enzyme activity in a cell by activity-based reporter gene technology (ABRGT)” (INDIAN INSTITUTE OF SCIENCE EDUCATION AND RESEARCH, priority 2018, dated 2023).
Peptide text beside a SMILES is read from it. * marks the point of attachment. Cbz = O=C(OCc1ccccc1)*; CH2F = FC*

Key:
caspase-8 GFPspark = molecular target: T1, caspase-8 GFPspark (Homo sapiens, UniProt Q14790); test: AbRGT FRET imaging / acceptor photobleaching, caspase-8 GFPspark in HEK-293 cells; type: cell-based
T1 construct: host or cells: HEK-293
T1 sequence (Q14790 217-374 limits assumed): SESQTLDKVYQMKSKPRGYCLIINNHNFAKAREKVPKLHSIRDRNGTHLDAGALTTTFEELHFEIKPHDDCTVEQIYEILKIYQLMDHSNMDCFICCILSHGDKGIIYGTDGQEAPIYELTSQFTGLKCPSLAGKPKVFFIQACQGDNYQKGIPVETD
T1 sequence (Q14790 385-479 limits assumed): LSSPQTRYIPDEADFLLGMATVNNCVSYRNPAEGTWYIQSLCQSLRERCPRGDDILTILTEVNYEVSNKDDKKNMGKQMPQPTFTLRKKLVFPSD
Experimental: FIG. 15 depicts confocal images of MCF-7 cells in GFP, FRET and Rh channel Caspase-7 GFPspark transfected MCF-7 cells were treated with STS (1 μM) for 6 h and labelled (a) (i) with probe 1 (1 μM) probe. Cells were pre-treated with (a) (ii) Z-VAD-FMK (50 μM) or (a) (iii) Q-VD-OPh (50 μM) pan-caspase inhibitors 1 h before the probe labelling. Caspase-9 GFPspark transfected MCF-7 cells were treated with STS (1 μM) for 4 h and labelled (b) (i) with probe 1 (1 μM) probe. Cells were pre-treated with (b) (ii) Z-VAD-FMK (50 μM) 1 h before probe labelling. Caspase-8 GFPspark overexpressing HEK-293 cells were treated with TRAIL (1 μg/ml) for 5 h and labelled (c) (i) with the probe 1. Cells were pre-treated with (c) (ii) Z-VAD-FMK (50 μM) 1 h before probe labelling.
FIG. 18 depicts specific detection of caspase-8 GFPspark in HEK-293 cells. Casp-8 GFPspark (1 μg) transfected HEK-293 cells were treated with TRAIL ([…]) for 6 h and labelled with the probe 1 (1 μM) for 2 h. Cells were washed, fixed and the fluorescence signal was collected in GFP, FRET and Rh channels. The acceptor photobleaching experiment was performed to confirm the FRET signal as described previously. The bar graph representing a rise in GFP intensity in ROI after rhodamine photobleaching was 82 a.u. as compared to the unbleached background, i.e., 11 a.u. The FRET efficiency was calculated to be 31±1%.
Plasmids and transient transfection: GFPspark tagged plasmids; caspase-3 GFPspark tag (Cat: HG10050-ACG), caspase-7 GFPspark tag (HG10049-ACG), caspase-8 GFPspark (HG10078-ACG), caspase-9 GFPspark (HG11151-ACG) and cathepsin B GFPspark (HG10483-ACG) were procured from Sino Biological. For transfection, cells were seeded in a 6-well plate at a density of 0.4 million cells/well. At 60-70% confluency, cells were transiently transfected for 24 h at 37° C. with 1 μg of the GFPspark tagged plasmid DNA construct mixed with 5 μL of Lipofectamine 2000 (Invitrogen) according to the manufacturer's instructions. 24 h post-transfection, cells were visualized under the GFP filter for GFPspark expression under fluorescence microscope at 10× magnification.
Labelling of active caspases in apoptotic cells with FABP: After 24 h of transfection, cells were treated with STS (1 μM) drug or TRAIL (1 μg/ml) for apoptotic induction and incubated for 2, 4, 6 and 8 h at 37° C. in a humidified atmosphere of 5% CO2/95% air. Cells were gently scraped off from the surface at the end of apoptotic induction and centrifuged at 3000 rpm for 5 min. […] Slides were then imaged for GFP, FRET and rhodamine fluorescence signals under confocal microscopy. […]
Fluorescence imaging studies, FRET procedure: Images were collected on Zeiss LSM710 confocal microscope with 25 mW argon laser using Zen10 software. […]

caspase-7 GFPspark = molecular target: T2, caspase-7 GFPspark (Homo sapiens, UniProt P55210); test: AbRGT FRET imaging / acceptor photobleaching, caspase-7 GFPspark in HEK-293 cells; type: cell-based
T2 construct: host or cells: MCF-7, HEK-293
T2 sequence (P55210 24-198 limits assumed): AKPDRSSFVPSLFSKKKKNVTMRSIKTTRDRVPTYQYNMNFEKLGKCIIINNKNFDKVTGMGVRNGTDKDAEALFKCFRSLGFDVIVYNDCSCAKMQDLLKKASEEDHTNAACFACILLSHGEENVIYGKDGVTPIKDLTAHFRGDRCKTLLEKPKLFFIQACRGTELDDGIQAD
T2 sequence (P55210 207-303 limits assumed): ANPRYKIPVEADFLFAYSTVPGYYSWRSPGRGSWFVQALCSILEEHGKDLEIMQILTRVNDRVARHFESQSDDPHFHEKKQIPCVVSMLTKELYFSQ
Experimental: FIGS. 14A and 14B depict specific detection of caspase-7 GFPspark in HEK-293 cells. Caspase-7 GFPspark (1 μg) transfected HEK-293 cells were treated with STS (1 μM) for 10 h and labelled with the probe 1 (1 μM) for 2 h. […] The acceptor photobleaching experiment was performed to confirm the FRET signal as described previously. Bar graph representing a rise in GFP intensity in ROI after rhodamine photobleaching was 87 a.u. as compared to the unbleached background, i.e., 13 a.u. FRET efficiency was calculated to be 33±2%.
Plasmids and transient transfection: GFPspark tagged plasmids; caspase-3 GFPspark tag (Cat: HG10050-ACG), caspase-7 GFPspark tag (HG10049-ACG), caspase-8 GFPspark (HG10078-ACG), caspase-9 GFPspark (HG11151-ACG) and cathepsin B GFPspark (HG10483-ACG) were procured from Sino Biological. For transfection, cells were seeded in a 6-well plate at a density of 0.4 million cells/well. […] 24 h post-transfection, cells were visualized under the GFP filter for GFPspark expression under fluorescence microscope at 10× magnification.
Labelling of active caspases in apoptotic cells with FABP: After 24 h of transfection, cells were treated with STS (1 μM) drug or TRAIL (1 μg/ml) for apoptotic induction and incubated for 2, 4, 6 and 8 h at 37° C. in a humidified atmosphere of 5% CO2/95% air. […] Slides were then imaged for GFP, FRET and rhodamine fluorescence signals under confocal microscopy. […]
Fluorescence imaging studies, FRET procedure: Images were collected on Zeiss LSM710 confocal microscope with 25 mW argon laser using Zen10 software. […] Images were collected in the three channels; GFP channel, argon laser tuned at 488 nm with 2% laser intensity and fluorescence emission was collected in emission range of 490-550 nm; rhodamine channel, argon laser tuned to 561 nm laser with 2% laser intensity and fluorescence emission was collected in range 550-650 nm and FRET channel with excitation laser of GFPSPARK channel and emission range of rhodamine channel. […]

[1] = HEK-293, TRAIL 6 h, probe 1 μM 2 h
[2] = HEK-293, STS 1 μM 10 h, probe 1 μM 2 h
[3] = HEK-293, TRAIL, Z-VAD-FMK pre-treatment

Compound | calculated FRET efficiency (caspase-8 GFPspark; [1]) [%] | rise in GFP intensity in ROI after rhodamine photobleaching (caspase-8 GFPspark; [1]) [a.u.] | calculated FRET efficiency (caspase-7 GFPspark; [2]) [%] | rise in GFP intensity in ROI after rhodamine photobleaching (caspase-7 GFPspark; [2]) [a.u.] | effect of inhibitor on signal in FRET channel (caspase-8 GFPspark; [3]) | effect of inhibitor on signal in Rh channel (caspase-8 GFPspark; [3]) | effect of inhibitor on FRET signal (caspase-7 GFPspark; HEK-293, inhibitor 50 μM pre-treatment, STS 10 h)
Rhodamine-VAD-fluoromethyl ketone [probe 1] | 31±1 | 82 | 33±2 | 87 | – | – | –
COC(=O)C[C@H](NC(=O)[C@H](C)NC(=O)[C@@H](NC(=O)OCc1ccccc1)C(C)C)C(=O)CF [Z-VAD-FMK] (Cbz-Val-Ala-Asp(OMe)-CH2F) | – | – | – | – | abolished | abolished | abolished
